Consider five molecules from article PMC4309423, “Total synthesis of periploside A, a unique pregnane hexasaccharide with potent immunosuppressive effects” (Nature Communications, 2015).

A short description of data set [1]: Cytotoxicity assay (MTT) on fresh spleen cells. The class given is cell-based, mice. To be noted: BALB/C, fresh spleen cells (T-lymphocytes); T-lymphocyte (mouse spleen cells), 48 h, MTT. Here is the method: (§1) Supplementary Figure 62. Inhibition of the growth of T-lymphocytes by synthetic compounds 1, 31, and 41-43. […]
(§2) Bioassay for the immunosuppressive activities17
(§3) Preparation of spleen cells from mice
(§4) BALB/C mice were sacrificed and spleens were removed aseptically. A single cell suspension was prepared after cell debris and clumps were removed. Erythrocytes were lysed using ammonium chloride buffer solution. The isolated lymphocytes were washed 3 times with PBS containing 2% FBS, and were re-suspended in RPMI 1640 medium at the indicated concentration.
(§5) Fresh spleen cells ([…]) were cultured in 96-well flat plates with 200 µL of RPMI 1640 media containing 10% FBS, 100 U/mL penicillin and 100 µg/mL streptomycin in a humidified, 37 °C, 5% CO2-containing incubator for 48 h, in the presence or absence of various concentrations of the compounds. 18 µL of MTT (5 mg/mL) was added to each well at the final 5 h culture. Then 90 µ L of lysis buffer (10% SDS, 50% DMF, pH 7.2) was added to each well for 6–7 h and the absorbance values at 570 nm were read by microplate reader (Bio-Rad, Model 550). […]

Data set [2] concerns ConA-induced T-lymphocyte proliferation (spleen cells from BALB/C mice). The data set is described as follows: T cell function assay: ConA-induced T-lymphocyte proliferation ([3H]-thymidine uptake). The class given is cell-based. To be noted: for IC50: Mus musculus, ConA (5 μg/mL)-induced T-lymphocyte proliferation, 48 h, [3H]-thymidine uptake. As to the method:
Supplementary Figure 63. Inhibition of concanavalin A (ConA)-induced
T-lymphocyte proliferation by synthetic compounds 1, 31, and 41-43.
as §2, §3
BALB/C mice were sacrificed and spleens were removed aseptically. A single cell suspension was prepared after cell debris and clumps were removed. Erythrocytes were lysed using ammonium chloride buffer solution. The isolated lymphocytes were washed 3 times with PBS containing 2% FBS, and were re-suspended in RPMI 1640 medium at the indicated concentration. […]
1 x 10^6 of fresh spleen cells were cultured for 48 h at the same conditions as mentioned above. The cultures were stimulated with 5 µg/mL of concanavalin A (ConA) to induce T cells proliferative responses. The compounds were added to cultures with indicated concentrations to test their bioactivities. Proliferation was assessed in terms of uptake of [3H]-thymidine during last 8 h culture pulsing with 25 µCi of [3H]-thymidine for each well, and then cells were harvested onto glass fiber filters by a Basic 96 harvester. The incorporated radioactivity was counted by a liquid scintillation counter (1540 MicroBeta Trilux, Perkin–Elmer Life Sciences).

For the next data set, the system named is mice models. Further details: method as in PMID 16204471, PMID 16751252. The settings on record: cited from earlier work.
Data set [3] relates to ConA-induced T cell proliferation. Further details: method as in PMID 18835000, PMID 21843896. To be noted: natural product, cited from earlier work.
In data set [4] the test system is T-lymphocyte (spleen cells from BALB/C mice). Briefly: Cytotoxicity assay (MTT) on fresh spleen cells. It counts as cell-based. To be noted: synthetic vs natural periploside A. As to the method:
as §1, §2, §3, §4, §5

The subject of a further data set is T cell. More on the design: method as in PMID 18835000, PMID 21843896. To be noted: toxicity; natural product; cited from earlier work.

The CC50 is the concentration at which the toxic effect on the cells reaches its halfway point. A word on the IC50: it is the midpoint of a concentration-inhibition curve. On to `CO[C@H]1[C@@H](O)[C@@H](C)O[C@@H](O[C@H]2[C@@H](OC)C[C@H](O[C@H]3[C@@H](OC)C[C@H](O[C@H]4[C@@H](OC)C[C@H](O[C@@H]5[C@@H](C)O[C@]6(C[C@H]5OC)OCO[C@@H]5C[C@H](O[C@@H](C)[C@@]7(O)CCC8C9CC=C%10C[C@@H](O)CC[C@]%10(C)C9CC[C@@]87C)O[C@H](C)[C@H]5O6)O[C@@H]4C)O[C@@H]3C)O[C@@H]2C)[C@@H]1OC(C)=O` (stereo partly drawn) [C1′′-epi-periploside A (31), C1′′-epi-periploside A], for which it took 1580 ± 190 nM to reach half-maximal cytotoxicity in data set [1] (CC50 at 48 h). Further, in data set [2], the IC50 was found to be 410 ± 150 nM.
`CO[C@H]1[C@@H](O)[C@@H](C)O[C@@H](O[C@H]2[C@@H](OC)C[C@H](O[C@H]3[C@@H](OC)C[C@H](O[C@H]4[C@@H](OC)C[C@@H](O[C@@H]5[C@@H](C)O[C@@]6(C[C@H]5OC)OCO[C@@H]5C[C@H](O[C@@H](C)[C@@]7(O)CCC8C9CC=C%10C[C@@H](O)CC[C@]%10(C)C9CC[C@@]87C)O[C@H](C)[C@H]5O6)O[C@@H]4C)O[C@@H]3C)O[C@@H]2C)[C@@H]1OC(C)=O` (stereo partly drawn) [C1′′′-epi-periploside A (41), C1′′′-epi-periploside A] had a half-maximal cytotoxic concentration (CC50) at 48 h in data set [1] of 11400 ± 3660 nM. This molecule also showed an IC50 in data set [2] of 1960 ± 430 nM.
On the same counts, the results for `CO[C@@H]1C[C@]2(OCO[C@@H]3C[C@H](O[C@@H](C)[C@@]4(O)CCC5C6CC=C7C[C@@H](O)CC[C@]7(C)C6CC[C@@]54C)O[C@H](C)[C@H]3O2)O[C@H](C)[C@H]1O` (stereo partly shown) [Disaccharide 42] are 12800 ± 520 nM and 6200 ± 3200 nM.
On the same counts, the results for `CO[C@@H]1C[C@]2(OCO[C@@H]3C[C@@H](O[C@@H](C)[C@@]4(O)CCC5C6CC=C7C[C@@H](O)CC[C@]7(C)C6CC[C@@]54C)O[C@H](C)[C@H]3O2)O[C@H](C)[C@H]1O` (stereo partly shown) [Disaccharide 43] are 27700 ± 6610 nM and 3700 ± 2250 nM.
For `COC1CC(OC2C(C)OC3(CC2OC)OCOC2CC(OC(C)C4(O)CCC5C6CC=C7CC(O)CCC7(C)C6CCC54C)OC(C)C2O3)OC(C)C1OC1CC(OC)C(OC2CC(OC)C(OC3OC(C)C(O)C(OC)C3OC(C)=O)C(C)O2)C(C)O1` (stereo not shown) [Periploside A (1), Periploside A], the “immunosuppressive effects in mice models” value with mice models is “significant”. For the same molecule, the values for the IC50 in data set [3] (ConA-induced T cell proliferation) and in data set [2] were 640 nM and 170 ± 40 nM, respectively. The “inhibition of ConA-induced T cell proliferation compared with reference drugs” value in data set [3] is “as potently as rapamycin and cyclosporin A”. Also, in data set [1], half-maximal cytotoxicity (CC50 at 48 h) was put at 2100 ± 320 nM. For the same molecule, the “toxicity against T-lymphocyte compared with the natural product” value in data set [4] is “similar”. In data set [2] (synthetic vs natural periploside A), the “activity against ConA-induced T-lymphocyte proliferation compared with the natural product” value is given as “similar”. For the same molecule, the CC50 with T cell was 10100 nM.
